We go through two compounds from patent US4663309A, “Novel peptide hormones with calcitonin-like activity” (University Patents, Inc., priority 1985, dated 1987).

pIC50: −log10 of the molar value. “Also recorded” adds a separate entry of the source. Bridge positions count the residues as written; N and C are the ends. Peptide text beside a SMILES is read from it.

As usually defined, the pIC50 is −log10 of the IC50, conventionally taken in molar units.

Series [1] deals with T1, brain receptors (calcitonin receptors, crude rat brain membranes) (Rattus norvegicus, UniProt P32214).
T1 sequence (P32214 25-516): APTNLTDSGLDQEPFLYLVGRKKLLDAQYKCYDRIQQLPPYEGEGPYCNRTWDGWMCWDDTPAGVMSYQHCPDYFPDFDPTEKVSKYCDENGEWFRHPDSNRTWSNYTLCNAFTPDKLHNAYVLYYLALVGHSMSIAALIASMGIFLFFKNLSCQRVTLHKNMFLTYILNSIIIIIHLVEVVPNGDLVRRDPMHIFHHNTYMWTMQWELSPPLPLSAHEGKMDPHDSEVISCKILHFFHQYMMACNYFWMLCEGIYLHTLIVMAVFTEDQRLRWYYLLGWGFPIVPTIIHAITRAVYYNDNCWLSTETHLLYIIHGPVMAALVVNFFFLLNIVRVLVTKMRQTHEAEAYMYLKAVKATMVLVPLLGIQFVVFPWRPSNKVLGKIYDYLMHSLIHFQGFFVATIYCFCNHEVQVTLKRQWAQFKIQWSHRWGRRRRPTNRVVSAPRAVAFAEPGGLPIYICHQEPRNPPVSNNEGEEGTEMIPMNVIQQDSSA
The following applies: tubes pretreated with peptide, 30 min at 4° C.
Protocol: Crude rats brain membranes were prepared as described by Nakamuta et al., supra, using 250-300 gm male Sprague-Dawley rats (Charles River Breeding Laboratories). Membranes were either used immediately or stored at -80° C. for no more than three days. Crude rat kidney membranes used for binding studies and adenylate cyclase assays were prepared as described by Schwartz, K. E., R. C. […] The dissected kidney cortices were first homogenized briefly with a Polytron™ (Brinkman Instruments) at low speed ("5") before complete homogenization with a loose-fitting Wheaton Dounce homogenizer (American Scientific Products, MacGaw Park, IL, pestle "B"). […] All preparations of kidney membranes were carried out at 4° C. and the membranes were used immediately for binding studies or adenylate cyclase assays.
The mixture was aspirated after a 1 hr incubation and these tubes were reused for all experiments, one set for brain membrane binding experiments and one set for kidney membrane binding experiments. […] Incubations were continued for 30 min at 4° C. (brain membranes) or 40 min at 21° C. (kidney membranes), and then stopped by centrifuging the tubes at 13,000 rpm for 5 min on a Beckman Microfuge II™ (Beckman Instruments). […] Radioactivity in each tip was quantitated using a Beckman Gamma 5500™ counter (Beckman Instruments).

Series [2] can be described thus: Circular dichroism spectra, alpha-helical structure in solution. The class given is physicochemical. The source says: The circular dichroism (CD) spectra of MCT-I and salmon calcitonin (designated "SCT-I", available from Armour Pharmaceuticals, Kankakee, IL and used without further purification) from 250 nm to 205 nm show minima at 222 nm and 208 nm characteristic of α-helical structure. For MCT-I, the mean residue molar ellipticity at 222 nm, [θ]222, was -7,800 deg.cm^2 /dmol (10^-4 M peptide, 0.02M sodium phosphate buffer, 0.16M KCl, pH 7.4), from which the α-helicity was estimated to be 30% (assuming no contribution to CD by β-sheet structure) according to the method of Morrisett, J. D., J. S. K. Davis, H. J. Pownall, and A. M. Gotto, Biochemistry 12:1290 (1973). […] Similarly, the value of [θ]222 for solutions of SCT-I over the same concentration range and under the same conditions also remains constant at -4,600 deg.cm^2 /dmol, leading to an estimate of 20% α-helix for this peptide. In 50% trifluoroethanol, a structure promoting solvent, both MCT-I and SCT-I were estimated to be 50% α-helical at a concentration of 5×10^-5 M, as was found by Brewer, H. D. and H. Edelhoch, J. Biol. Chem. 245:2402 (1970) for porcine calcitonin (PCT) in 50% 2-chloroethanol.
The circular dichroic spectra of MCT-II solutions buffered with 0.02M sodium phosphate at pH 7.4 and containing 0.16M KCl were measured from 250 nm to 200 nm using a Carey 60™ spectropolarimeter (Varian Instruments, Palo Alto. CA). The spectrometer cells used were washed with concentrated nitric acid, rinsed thoroughly with deionized water, then treated with a 1% aqueous polyethylene glycol (Mr 15K-20K) solution for 1 hr and finally rinsed with water before using. The molar ellipticities obtained from the circular dichroic spectra of MCT-II from 240 nm to 204 nm were fitted by a linear combination of three different basis functions derived from the spectra described by Greenfield, N. and G. D. Fasman, Biochem. 8:4108(1969) for α-helix, β-sheet, and random coil structure. […] Since there was no significant contribution to the spectrum from β-sheet structure, we used the mean residue molar ellipticity at 222 nm, [ θ]222, to estimate changes in α-helical structure (Morrisett et al., supra). The results are given in FIG. 3; each data point represents the mean from two experiments. […] [θ]222 for the monomer was -5,200 deg.cm^2 /dmol (20% α-helix) and -10,475 deg.cm^2 /dmol (35% α-helix) for the trimer. […] This dissociation constant corresponds to a 4.5 kcal/mol of stabilization energy per monomer for trimerization. Under similar conditions and over the same concentration range [θ]222 for MCT-I and SCT-I remained constant at -7,800 deg.cm^2 /dmol and -4,600 deg.cm^2 /dmol, respectively.
In general terms: Circular dichroism is widely used to follow secondary structure.

The test system of series [3] is male Sprague-Dawley rats. Kind of series: In vivo relative hypocalcemic potency in rats (Example 10). On the set-up: species or system rat. As to the method:
The relative hypocalcemic potency of MCT-II and SCT-I was assessed by giving 3 to 4 week-old male Sprague-Dawley rats (Charles River Breeding Laboratories) subcutaneous injections of hormone in 0.9% saline containing 0.1% BSA. In each experiment, 25 rats were divided into 5 groups of 5 rats each and each group given either saline alone or saline with hormone. Blood samples were obtained by cardiac puncture from the ether-anesthetized rats 1 hr after injection. 200 μl of the blood plasma was diluted in 5 ml of 5% trichloroacetic acid-1000 ppm lithium (Chem-Chek Consulting Inc., South Boundbrook, NJ) and centrifuged before determining the calcium concentration by plasma emission spectrometry (Beckman Spectra Span IV™, Beckman Instruments). Calcium standards were also purchased from Chem-Chek Consulting Inc.

Series [4] concerns male Sprague-Dawley rats. Kind of series: In vivo hypocalcemic rat bioassay (Example 6).
In series [5] the target is T2, calcitonin receptors (brain particulate fraction) (Rattus norvegicus, UniProt P32214).
T2 sequence (P32214 25-516): T1 sequence (P32214 25-516)
Description: Fractions from the single symmetrical peak which was eluted with this buffer were combined, adjusted to pH 7.5, and frozen in small aliquots until needed. The specific activity of the radioiodinated peptide was ~160 μCi/μg. […] Each point represents the mean of three triplicate determinations.

Regarding `CC(C)C[C@H](NC(=O)[C@H](CCCCN)NC(=O)[C@H](CCC(N)=O)NC(=O)[C@H](CC(C)C)NC(=O)[C@H](CCC(N)=O)NC(=O)[C@H](CCC(N)=O)NC(=O)[C@H](CC(C)C)NC(=O)[C@H](CC(C)C)NC(=O)[C@@H]1CSSC[C@H](N)C(=O)N[C@@H](CO)C(=O)N[C@@H](CC(N)=O)C(=O)N[C@@H](CC(C)C)C(=O)N[C@@H](CO)C(=O)N[C@@H]([C@@H](C)O)C(=O)N1)C(=O)N[C@@H](CC(C)C)C(=O)N[C@@H](CCC(N)=O)C(=O)N[C@@H](CCCCN)C(=O)N[C@@H](CC(C)C)C(=O)N[C@@H](CCCCN)C(=O)N[C@@H](CCC(N)=O)C(=O)N[C@@H](Cc1ccc(O)cc1)C(=O)N1CCC[C@H]1C(=O)N[C@@H](CCCNC(=N)N)C(=O)N[C@H](C(=O)N[C@@H](CC(N)=O)C(=O)N[C@H](C(=O)NCC(=O)N[C@@H](CO)C(=O)NCC(=O)N[C@H](C(=O)N1CCC[C@H]1C(N)=O)[C@@H](C)O)[C@@H](C)O)[C@@H](C)O` [MCT-II] (H-CSNLSTCLLQQLQKLLQKLKQYPRTNTGSGTP-NH2; disulfide 1-7; N-terminus assumed), the “IC50 for brain receptors, calculated from theoretical curves fitted to the data” value in series [1] is 0.6 nM. Moreover, the “Stabilization energy per monomer for trimerization” value in series [2] came to 4.5 kcal/mol. Further, the “α-helix of the monomer” value in series [2] (monomer) came to 20%. Moreover, the “Dissociation constant (Kd) for the oligomer” value in series [2] (monomer/trimer equilibrium) is 5.06×10^-11 M^2. Also, the “[θ]222 for the monomer” value in series [2] (monomer, 0.02M sodium phosphate pH 7.4, 0.16M KCl) is -5,200 deg.cm^2 /dmol. Also, the “α-helix of the trimer” value in series [2] (trimer) was 35%. In addition, the “[θ]222 for the trimer” value in series [2] (trimer, 0.02M sodium phosphate pH 7.4, 0.16M KCl) is given as -10,475 deg.cm^2 /dmol. Besides, the “Activity relative to MCT-I” value in the series on male Sprague-Dawley rats [3] (in all assays used to compare them) is 10 times. For the same compound, the “Hypocalcemic potency relative to SCT-I” value with male Sprague-Dawley rats [3] (subcutaneous, 0.1 to 100 ng/100 g body weight, 1 hr after injection, b99: all assays used to compare them) is given as “indistinguishable from that of our preparation of SCT-I; also recorded: as active as SCT-I”.

Turning to `CC(C)C[C@@H]1NC(=O)[C@H](CC(N)=O)NC(=O)CNC(=O)[C@@H](N)CSSC[C@@H](C(=O)N[C@@H](CC(C)C)C(=O)N[C@@H](CC(C)C)C(=O)N[C@@H](CCC(N)=O)C(=O)N[C@@H](CCC(N)=O)C(=O)N[C@@H](Cc2c[nH]c3ccccc23)C(=O)N[C@@H](CCC(N)=O)C(=O)N[C@@H](CCCCN)C(=O)N[C@@H](CC(C)C)C(=O)N[C@@H](CC(C)C)C(=O)N[C@@H](CCC(N)=O)C(=O)N[C@@H](CCCCN)C(=O)N[C@@H](CC(C)C)C(=O)N[C@@H](CCCCN)C(=O)N[C@@H](CCC(N)=O)C(=O)N[C@@H](CC(C)C)C(=O)N2CCC[C@H]2C(=O)N[C@@H](CCCNC(=N)N)C(=O)N[C@H](C(=O)N[C@@H](CC(N)=O)C(=O)N[C@H](C(=O)NCC(=O)N[C@@H](CO)C(=O)NCC(=O)N[C@H](C(=O)N2CCC[C@H]2C(N)=O)[C@@H](C)O)[C@@H](C)O)[C@@H](C)O)NC(=O)[C@H]([C@@H](C)O)NC(=O)[C@H](CO)NC1=O` [MCT-I] (H-CGNLSTCLLQQWQKLLQKLKQLPRTNTGSGTP-NH2; disulfide 1-7), the “Activity relative to PCT” value in the series with male Sprague-Dawley rats [4] (hypocalcemic response in rats, b98 covers in vitro and in vivo activity) was “approximately as active as PCT; also recorded: equivalent to that of PCT”. Also, the “In vivo potency relative to SCT-I (fold less potent)” value with male Sprague-Dawley rats [4] (subcutaneous, plasma calcium 1 hour after injection) is recorded as “about 10 fold”. Further, the “α-helicity estimated from [θ]222” value in series [2] (0.02M sodium phosphate, 0.16M KCl, pH 7.4) is 30%. The “Mean residue molar ellipticity at 222 nm, [θ]222” value in series [2] (0.02M sodium phosphate, 0.16M KCl, pH 7.4, constant from 10^-7 M to 10^-4 M) was -7,800 deg.cm^2 /dmol. For the same compound, the “α-helicity in 50% trifluoroethanol” value in series [2] (5×10^-5 M peptide) is on record as 50%. Moreover, the pIC50 in series [5] is 7.77.
